Data on 26 compounds can be found in patent US8030354B2, “Substituted biphenyl GPR40 modulators” (Amgen Inc., priority 2007, dated 2011).

GPR40, sequence (O14842 whole entry): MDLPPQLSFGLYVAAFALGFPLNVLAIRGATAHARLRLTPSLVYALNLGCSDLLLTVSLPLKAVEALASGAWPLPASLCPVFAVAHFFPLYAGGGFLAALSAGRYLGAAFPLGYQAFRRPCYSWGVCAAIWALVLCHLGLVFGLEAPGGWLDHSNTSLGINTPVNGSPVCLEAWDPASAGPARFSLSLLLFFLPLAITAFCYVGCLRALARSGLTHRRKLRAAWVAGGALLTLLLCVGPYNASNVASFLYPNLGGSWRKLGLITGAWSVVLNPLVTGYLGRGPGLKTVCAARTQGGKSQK

The test deals with GPR40 (Homo sapiens, UniProt O14842). Briefly: Cell-based aequorin assay (CHO cells stably expressing GPR40 and aequorin). Further details: expressed in transfected cells; host or cells: CHO cells stably transfected with GPR40 and aequorin. To be noted: activation of human GPR40, CHO cells, 0.01% HSA. An outline of the steps:
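CHO cells stably co-expressing GPR40 and aequorin, loaded with coelenterazine (1 ug/mL, 2 h, room temperature) in H/HBSS with 20 mM Hepes and 0.01% fatty acid-free HSA. Serially diluted compounds added; luminescence recorded over 20 s. EC50 from dose-response of maximum relative light units.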
As for `COc1ccc(F)c(-c2ccc(COc3cccc(C(CC(=O)O)CC4CC4)c3)cc2C2OCCCC2(C)C)c1` (single isomer, unassigned) [Example 69.27, (R)-4-Cyclopropyl-3-{3-[2-(3,3-dimethyl-tetrahydro-pyran-2-yl)-2′-fluoro-5′-methoxy-biphenyl-4-ylmethoxy]-phenyl}-butyric acid or (S)-4-cyclopropyl-3-{3-[2-(3,3-dimethyl-tetrahydro-pyran-2-yl)-2′-fluoro-5′-methoxy-biphenyl-4-ylmethoxy]-phenyl}-butyric acid], the concentration for a half-maximal effect (EC50) fell in the range of 0.1 to 1 µM.

Compound `CC1(C)CCC[C@H]1c1cc(COc2cccc([C@@H](CC(=O)O)C3CC3)c2)ccc1-c1cc(C(F)F)ccc1F` (single isomer, unassigned) [Example 66.52] showed an EC50 of 1 to 10 µM.

Consider `CCC(C)(C)C(OC)c1cc(COc2cccc(C(CC(=O)O)CC3CC3)c2)ccc1-c1cc(OC)ccc1F` (single isomer, unassigned) [Example 69.41, (3R)-4-Cyclopropyl-3-(3-(((2-((1S)-2,2-dimethyl-1-(methyloxy)butyl)-2′-fluoro-5′-(methyloxy)-1,1′-biphenyl-4-yl)methyl)oxy)phenyl)butanoic acid or (3R)-4-cyclopropyl-3-(3-(((2-((1S)-2,2-dimethyl-1-(methyloxy)butyl)-2′-fluoro-5′-(methyloxy)-1,1′-biphenyl-4-yl)methyl)oxy)phenyl)butanoic acid], for which the EC50 lay within 0.1 to 1 µM.

`COc1cccc(-c2ccc(COc3cccc(CCC(=O)O)c3)cc2C)c1` [Example 1, 3-(3-(((2-Methyl-3′-(methyloxy)-1,1′-biphenyl-4-yl)methyl)oxy)phenyl)propanoic acid] registered an EC50 of 1 to 10 µM.

Compound `CCCCOc1cc(COc2cccc([C@H](C)CC(=O)O)c2)ccc1-c1ccc(OC)cc1` (single isomer, unassigned) [Example 21, (3R)-3-(3-(((2-(Butyloxy)-4′-(methyloxy)-1,1′-biphenyl-4-yl)methyl)oxy)phenyl)butanoic acid or (3S)-3-(3-(((2-(butyloxy)-4′-(methyloxy)-1,1′-biphenyl-4-yl)methyl)oxy)phenyl)butanoic acid] showed an EC50 of 1 to 10 µM.

Compound `CCCOc1cc(COc2cccc([C@H](C)CC(=O)O)c2)ccc1-c1cc(OC)ccc1F` (single isomer, unassigned) [Example 27, (3R)-3-(3-(((2′-Fluoro-5′-(methyloxy)-2-(propyloxy)-1,1′-biphenyl-4-yl)methyl)oxy)phenyl)butanoic acid or (3S)-3-(3-(((2′-fluoro-5′-(methyloxy)-2-(propyloxy)-1,1′-biphenyl-4-yl)methyl)oxy)phenyl)butanoic acid] came in with a concentration for a half-maximal effect (EC50) of 1 to 10 µM.

Regarding `COc1cc(-c2ccc(COc3cccc([C@@H](CC(=O)O)C4CC4)c3F)cc2[C@H](OC)C(C)(C)C)c(F)cn1` (single isomer, unassigned) [Example 83.32], the EC50 lay within 1 to 10 µM.

As for `CCCCOc1cc(COc2cccc(C(CC(=O)O)CC3CC3)c2)ccc1-c1cc(OC)ccc1F` (single isomer, unassigned) [Example 69.5, (3R)-3-(3-(((2-(Butyloxy)-2′-fluoro-5′-(methyloxy)-1,1′-biphenyl-4-yl)methyl)oxy)phenyl)-4-cyclopropylbutanoic acid or (3S)-3-(3-(((2-(butyloxy)-2′-fluoro-5′-(methyloxy)-1,1′-biphenyl-4-yl)methyl)oxy)phenyl)-4-cyclopropylbutanoic acid], the EC50 lay in the range of 0.1 to 1 µM.

In turn, `COc1ccc(F)c(-c2ccc(COc3cccc([C@@H](CC(=O)O)C4CC4)c3)cc2C2=CCOCC2)c1` (single isomer, unassigned) [Example 66.46, (3S)-3-Cyclopropyl-3-(3-(((2-(3,6-dihydro-2H-pyran-4-yl)-2′-fluoro-5′-(methyloxy)-1,1′-biphenyl-4-yl)methyl)oxy)phenyl)propanoic acid or (3R)-3-cyclopropyl-3-(3-(((2-(3,6-dihydro-2H-pyran-4-yl)-2′-fluoro-5′-(methyloxy)-1,1′-biphenyl-4-yl)methyl)oxy)phenyl)propanoic acid] came in with an EC50 of 1 to 10 µM.

Regarding `COc1cccc(-c2ccc(COc3cccc(C(CC(=O)O)C4CC4)c3)cc2C2CCCC2(C)C)c1` (single isomer, unassigned) [Example 66.7], the EC50 lay in the range of 0.1 to 1 µM.

`C=CC(C)(C)C(O)c1cc(COc2cccc(C(CC(=O)O)C3CC3)c2)ccc1-c1cc(OC)ccc1F` (single isomer, unassigned) [Example 66.61] yielded an EC50 of 0.1 to 1 µM.

Turning to `COc1ccc(F)c(-c2ccc(COc3cncc(CCC(=O)O)c3)cc2C(C)(C)C)c1` [Example 96, 3-(5-(((2-(1,1-Dimethylethyl)-2′-fluoro-5′-(methyloxy)-1,1′-biphenyl-4-yl)methyl)oxy)-3-pyridinyl)propanoic acid], the EC50 lay in the range of 1 to 10 µM.

`CSc1cccc(-c2ccc(COc3cccc(CCC(=O)O)c3)cc2C(C)(C)C)c1` [Example 61.4, 3-(3-(((2-(1,1-Dimethylethyl)-3′-(methylsulfanyl)-1,1′-biphenyl-4-yl)methyl)oxy)phenyl)propanoic acid] gave an EC50 of 1 to 10 µM.

Compound `CCC(CC(=O)O)c1cccc(OCc2ccc(-c3cc(OC)ccc3F)c(C3CCCC3(C)C)c2)c1F` (single isomer, unassigned) [Example 100.2] showed an EC50 of 0.1 to 1 µM.

`CSc1cccc(-c2ccc(COc3cccc([C@H](C)CC(=O)O)c3)cc2C(C)(C)C)c1` (single isomer, unassigned) [Example 3, (3R)-3-(3-(((2-(1,1-Dimethylethyl)-3′-(methylsulfanyl)-1,1′-biphenyl-4-yl)methyl)oxy)phenyl)butanoic acid or (3S)-3-(3-(((2-(1,1-dimethylethyl)-3′-(methylsulfanyl)-1,1′-biphenyl-4-yl)methyl)oxy)phenyl)butanoic acid]: the EC50 was 1 to 10 µM.

`COc1ccc(F)c(-c2ccc(COc3cccc(C(CC(=O)O)CC4CC4)c3)cc2C2CCCC2(C)C)c1` (single isomer, unassigned) [Example 69.7] gave an EC50 of 0.1 to 1 µM.

`CC1(C)CCC[C@H]1c1cc(COc2cccc([C@H](CC(=O)O)C3CC3)c2F)ccc1-c1cc(C(F)F)ccc1F` (single isomer, unassigned) [Example 83.13] had an EC50 of 1 to 10 µM.

Take `COc1ccc(F)c(-c2ccc(COc3cccc(C(CC(=O)O)C4CC4)c3F)cc2C(OC)C(C)(C)OC)c1` (single isomer, unassigned) [Example 83.33]: the EC50 lay within 1 to 10 µM.

For `CCCCOc1cc(COc2cccc([C@H](C)CC(=O)O)c2)ccc1-c1cccc(OCC)c1` (single isomer, unassigned) [Example 22, (3R)-3-(3-(((2-(Butyloxy)-3′-(ethyloxy)-1,1′-biphenyl-4-yl)methyl)oxy)phenyl)butanoic acid or (3S)-3-(3-(((2-(butyloxy)-3′-(ethyloxy)-1,1′-biphenyl-4-yl)methyl)oxy)phenyl)butanoic acid], the concentration giving a half-maximal response (EC50) lay in the range of 1 to 10 µM.

As for `CCCC(CC(=O)O)c1cccc(OCc2ccc(-c3cccc(OC)n3)cc2)c1` (single isomer, unassigned) [Example 67.22, (3R)-3-(3-(((4-(6-(Methyloxy)-2-pyridinyl)phenyl)methyl)oxy)phenyl)hexanoic acid or (3S)-3-(3-(((4-(6-(methyloxy)-2-pyridinyl)phenyl)methyl)oxy)phenyl)hexanoic acid], the EC50 was 1 to 10 µM.

`COc1ccc(F)c(-c2ccc(COc3cccc(C(CC(=O)O)CC4CC4)c3)cc2CN2CCCCCC2)c1` (single isomer, unassigned) [Example 69.48, (3R)-3-(3-(((2-(1-Azepanylmethyl)-2′-fluoro-5′-(methyloxy)-1,1′-biphenyl-4-yl)methyl)oxy)phenyl)-4-cyclopropylbutanoic acid or (3S)-3-(3-(((2-(1-azepanylmethyl)-2′-fluoro-5′-(methyloxy)-1,1′-biphenyl-4-yl)methyl)oxy)phenyl)-4-cyclopropylbutanoic acid] came in with an EC50 of 1 to 10 µM.

For the compound `COc1ccc(F)c(-c2ccc(COc3cccc([C@@H](CC(=O)O)C4CC4)c3)cc2[C@H]2OCCCC2(C)C)c1` (single isomer, unassigned) [Example 66.55], the EC50 was 1 to 10 µM.

Consider `CC1(C)CCC[C@@H]1c1cc(COc2cccc([C@@H](CC(=O)O)C3CC3)c2)ccc1-c1cccc(OC2CC2)c1` (single isomer, unassigned) [Example 66.48], for which the EC50 fell in the range of 0.1 to 1 µM.

For the compound `CO[C@@H](c1cc(COc2cccc([C@@H](CC(=O)O)C3CC3)c2)ccc1-c1ccccc1F)C(C)(C)C` (single isomer, unassigned) [Example 66.32], the EC50 is 0.1 to 1 µM.

For the compound `C=CC(CC(=O)O)c1cccc(OCc2ccc(-c3cc(OC)ccc3F)c(C(C)(C)C)c2)c1` (single isomer, unassigned) [Example 19, (3R)-3-(3-(((2-(1,1-Dimethylethyl)-2′-fluoro-5′-(methyloxy)-1,1′-biphenyl-4-yl)methyl)oxy)phenyl)-4-pentenoic acid or (3S)-3-(3-(((2-(1,1-dimethylethyl)-2′-fluoro-5′-(methyloxy)-1,1′-biphenyl-4-yl)methyl)oxy)phenyl)-4-pentenoic acid], the EC50 lay within 1 to 10 µM.

`CCC[C@H](CC(=O)O)c1cccc(OCc2ccc(-c3ccccc3F)c(C(C)(C)C)c2)c1` (single isomer, unassigned) [Example 67.18, (3R)-3-(3-(((2-(1,1-Dimethylethyl)-2′-fluoro-1,1′-biphenyl-4-yl)methyl)oxy)phenyl)hexanoic acid or (3S)-3-(3-(((2-(1,1-dimethylethyl)-2′-fluoro-1,1′-biphenyl-4-yl)methyl)oxy)phenyl)hexanoic acid] gave an EC50 of 1 to 10 µM.
